# Measured values from PubChem BioAssay (NCI).
#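 Results reflect a 48-hour exposure of cells in 96-well plates to compound at five concentrations. At the TGI there is no net growth.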 Where a SMILES comes first, the peptide text is derived from it. [ ]: non-standard residue; d: D form. The star is where a group is joined. Bn2Val = CC(C)[C@@H](C(=O)*)N(Cc1ccccc1)Cc1ccccc1; NHPiperonyl = c1cc2c(cc1CN*)OCO2; NMeV = CN[C@H](C(=O)O)C(C)C; dNMeA = CN[C@H](C)C(=O)O
# Experiments:
# Assay in all cases: DTP human tumour cell line panel, 48 h
# [1] = tested on: SF-268 CNS
# [2] = tested on: EKVX NSCLC
# [3] = tested on: MDA-N
# [4] = tested on: HL-60(TB) leukemia
# [5] = tested on: MDA-MB-435
# [6] = tested on: LOX IMVI melanoma
# [7] = tested on: UACC-257 melanoma
# [8] = tested on: SF-539 CNS
# [9] = tested on: OVCAR-4 ovarian
# [10] = tested on: NCI-H23 lung
# [11] = tested on: UACC-62 melanoma
# [12] = tested on: SK-OV-3 ovarian
# [13] = tested on: M14 melanoma
# [14] = tested on: MALME-3M melanoma
# [15] = tested on: BT-549 breast
# [16] = tested on: KM12 colon
# [17] = tested on: A498 renal
# [18] = tested on: SK-MEL-5 melanoma
# [19] = tested on: SR leukemia
Compound,TGI [1] [µM],TGI [2] [µM],TGI [3] [µM],TGI [4] [µM],TGI [5] [µM],TGI [6] [µM],TGI [7] [µM],TGI [8] [µM],TGI [9] [µM],TGI [10] [µM],TGI [11] [µM],TGI [12] [µM],TGI [13] [µM],TGI [14] [µM],TGI [15] [µM],TGI [16] [µM],TGI [17] [µM],TGI [18] [µM],TGI [19] [µM]
CC(C)[C@H](NC(=O)[C@H](C(C)C)N(Cc1ccccc1)Cc1ccccc1)C(=O)N(C)[C@H](C(=O)N1CCC[C@H]1C(=O)N(C)[C@H](C)C(=O)NCc1ccc2c(c1)OCO2)C(C)C (Bn2Val-V[NMeV]P[dNMeA]-NHPiperonyl),> 74.5,> 100,49.4,2.8,> 96.4,> 100,> 100,11.5,> 100,> 100,> 74.2,> 100,> 100,> 65.3,57.5,> 100,,,
CC(=O)Oc1c(C)cc2c(c1C)C(C)(C)CN2C(=O)C(C)(C)C,> 100,> 100,> 100,> 100,> 100,> 100,> 100,> 100,> 100,> 100,> 100,> 100,> 100,,,> 100,> 100,> 100,
CSC1=NC(=O)CCN1C1OCC(OC(C)=O)C(OC(C)=O)C1OC(C)=O (stereo not given),29.3,> 31.6,,> 23,> 31.6,,> 31.6,28.7,> 31.6,> 31.6,> 100,29.5,,23.2,25,> 31.6,25.3,17.9,> 31.6
O=c1oc2cc(O)ccc2c(O)c1C(c1ccc2ccccc2c1)c1c(O)c2ccc(O)cc2oc1=O,33.5,> 100,,69.2,> 100,> 100,> 100,> 100,,> 100,> 100,> 100,> 100,,> 100,> 100,> 100,> 100,67.1
CSC1=C(C(=O)N(COCC[Si](C)(C)C)c2ccccc2Br)CCC(C(C)(C)C)C1 (stereo not given),,37.8,,11.8,> 100,29.2,47.8,,> 100,> 100,39.9,> 100,76.3,46.4,> 100,42.2,85.9,27.2,11.7
CC(C)C(C)C(O)C(O)C(C)C1CCC2C3COC(=O)C4CC(O)C(O)CC4(C)C3CCC12C (stereo not given),> 100,> 100,> 100,,> 100,> 100,> 100,> 100,> 100,> 100,> 100,> 100,> 100,> 100,> 100,> 100,> 100,> 100,
CC(=O)N(CN1C(=O)CCC1C(=O)O)c1ccc(C)cc1 (stereo not given),> 100,> 100,> 100,> 100,> 100,> 100,> 100,> 100,> 100,> 100,> 100,> 100,> 100,> 100,,> 100,> 100,> 100,
COc1cccc([C@@H]2C/C(=N\NC(=O)C(=O)N[C@@H](C)c3ccccc3)c3cc4c(cc3N2)OCO4)c1,> 100,> 100,28.4,,17.2,> 100,> 100,> 100,> 100,,> 100,> 100,> 100,,,> 100,> 100,65.3,
Nc1nc(N)c2c(CCc3ccc(C(=O)N[C@@H](CCC(=O)O)C(=O)O)cc3)ccnc2n1,> 100,> 100,> 100,> 100,> 100,> 100,> 100,> 100,> 100,> 100,> 100,> 100,> 100,> 100,,> 100,> 100,> 100,> 100
O=C1OCCC12CN(Cc1ccccc1)N=N2 (stereo not given),> 100,,> 100,,> 100,,,> 100,> 100,> 100,> 100,> 100,> 100,> 100,,> 100,> 100,> 100,74.6
Clc1ccc(/C=c2\nc(-c3ccccc3)n3c2nc2ccccc23)cc1,> 100,71.4,,> 100,> 100,> 100,> 100,52.2,> 100,> 100,> 100,> 100,> 100,> 100,> 100,> 100,> 100,> 100,> 100
Cc1ccc(N/C(=C(/C(Cl)=C(Cl)Cl)[N+](=O)[O-])n2nnc3ccccc32)cc1,36.8,39.5,38.1,,40.2,,62.7,31.3,39.6,43.8,,35.8,31.7,29.9,37.6,47.7,,,
O=C1CCN=C(NC(=O)C(F)(F)F)N1CCc1c[nH]c2ccccc12,> 100,> 100,> 100,> 100,> 100,> 100,> 100,> 100,> 100,> 100,> 100,> 100,> 100,> 100,,> 100,> 100,> 100,
COC1CC(=O)C2C(=O)N(c3ccccc3)C(=O)C23C(C(=O)c2ccccc2)=C(C)NC13O (stereo not given),22.6,59.9,72.2,,40.9,28.9,56.2,21.8,16.6,46.3,31.3,54,35.5,9.96,> 100,35.6,47.7,37.4,
